Reference: patent publication US8420630B2 (Boehringer Ingelheim Pharma GmbH & Co. KG, priority 2001, dated 2013)
pIC50: −log10 of the molar value. Where a name gives a salt, the structure may show the parent alone.

target: T1, CDK1/cyclinB1 (Homo sapiens, UniProt P06493); assay: Cyclin B1-CDK1 kinase inhibition test; assay type: biochemical; conditions: CDK1 tests (Example 13); recombinant cyclin B1/CDK1, substrate histone H1; read-out: CDK1/cyclinB1 IC50 value
T1 construct: made in house; host or cells: High Five insect cells (Trichoplusia ni), baculovirus coinfection
T1 sequence (P06493 whole entry): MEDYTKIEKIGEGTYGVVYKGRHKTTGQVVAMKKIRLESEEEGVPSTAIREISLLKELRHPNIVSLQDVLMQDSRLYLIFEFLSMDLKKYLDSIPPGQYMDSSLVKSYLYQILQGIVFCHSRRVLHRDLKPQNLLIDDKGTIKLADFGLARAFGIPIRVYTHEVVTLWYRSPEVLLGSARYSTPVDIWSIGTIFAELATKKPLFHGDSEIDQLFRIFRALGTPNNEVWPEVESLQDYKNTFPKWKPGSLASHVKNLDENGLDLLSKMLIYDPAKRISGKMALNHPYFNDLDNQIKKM
T1 sequence (P14635 whole entry partner): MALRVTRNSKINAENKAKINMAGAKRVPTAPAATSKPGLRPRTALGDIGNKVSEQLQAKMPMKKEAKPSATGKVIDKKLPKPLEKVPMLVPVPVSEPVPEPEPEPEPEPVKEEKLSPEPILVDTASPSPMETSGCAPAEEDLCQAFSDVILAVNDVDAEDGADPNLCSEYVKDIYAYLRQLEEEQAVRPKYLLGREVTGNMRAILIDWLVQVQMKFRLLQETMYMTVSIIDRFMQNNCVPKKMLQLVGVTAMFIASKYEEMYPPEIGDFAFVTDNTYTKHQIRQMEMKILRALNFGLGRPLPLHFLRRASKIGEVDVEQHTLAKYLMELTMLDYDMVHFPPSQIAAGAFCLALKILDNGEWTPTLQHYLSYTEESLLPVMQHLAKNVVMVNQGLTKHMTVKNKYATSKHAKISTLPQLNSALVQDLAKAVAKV
How it was run: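 Baculovirus-expressed CDK1/cyclin B1 phosphorylated histone H1 with ATP mix containing 0.045 mM ATP plus ^33P-ATP for 30 min at 30 °C. Protein was precipitated with TCA and filter-bound radioactivity read by scintillation counting. Olomoucin at 30 and 300 μM final served as internal control.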

Compound	pIC50
O=[N+]([O-])c1ccc(Nc2ncc([N+](=O)[O-])c(N3CCc4[nH]cnc4C3)n2)cc1 [Example 1(027), 2-(4-nitro-phenylamino)-4-(1,4,6,7-tetrahydro-imidazo[4,5-c]pyridin-5-yl)-5-nitro-pyrimidine]	> 7.00
CC(=O)NCCNc1nc(Nc2cccc(NS(=O)(=O)c3ccccc3)c2)ncc1C(F)(F)F [Example 10(015), N-(2-[2-(3-phenylsulphonylamido-phenylamino)-5-trifluoromethyl-pyrimidin-4-ylamino]-ethyl)-acetamide]	> 7.00
NCCCCNc1nc(Nc2ccc(Cl)c(Cl)c2)ncc1C(F)(F)F [Example 1(304), 2-(3,4-dichlorophenylamino)-4-(4-aminobutylamino)-5-trifluoromethyl-pyrimidine]	> 7.00
O=C(O)CCc1ccc(Nc2ncc(C(F)(F)F)c(N3CCc4[nH]cnc4C3)n2)cc1 [Example 1(023), 2-(4-(2-carboxy-1-ethyl-)phenylamino)-4-(1,4,6,7-tetrahydro-imidazo[4,5-c]pyridin-5-yl)-5-trifluoromethyl-pyrimidine]	> 7.00
NCCCNc1nc(Nc2cccc(Br)c2)ncc1C(F)(F)F [Example 1(024), 2-(3-bromo-phenylamino)-4-(3-amino-propylamino)-5-trifluoromethyl-pyrimidine]	> 7.00
CN(C)[C@H]1CC[C@H](Nc2nc(Nc3ccc(C(=O)O)cc3)ncc2[N+](=O)[O-])CC1 [Example 1(018), 2-(4-carboxy-phenylamino)-4-(trans-4-dimethylamino-cyclohexylamino)-5-nitro-pyrimidine]	> 7.00
O=C(O)c1ccc(Nc2ncc(C(F)(F)F)c(NCCCN3CCCC3=O)n2)cc1 [Example 1(021), 2-(4-carboxy-phenylamino)-4-(3-(2-oxo-pyrrolidin-1-yl)-propyl-1-amino)-5-trifluoromethyl-pyrimidine]	> 7.00
CN(C)[C@H]1CC[C@H](Nc2nc(Nc3ccc(C(=O)O)cc3)ncc2C(F)(F)F)CC1 [Example 1(054), 2-(4-carboxy-phenylamino)-4-(trans-4-dimethylamino-cyclohexylamino)-5-trifluoromethyl-pyrimidine]	> 7.00
O=C1CCCN1CCCNc1nc(Nc2ccc3[nH]cnc3c2)ncc1C(F)(F)F [Example 2(037), 1-{3-[2-(1H-Benzimidazol-5-ylamino)-5-trifluoromethyl-pyrimidin-4-ylamino]-propyl}-pyrrolidin-2-one]	> 7.00
CC(=O)NCCNc1nc(Nc2ccc(CC(=O)N(C)C)cc2)ncc1C(F)(F)F [Example 2(053), 2-{4-[4-(2-Acetylamino-ethylamino)-5-trifluoromethyl-pyrimidin-2-ylamino]-phenyl}-N,N-dimethyl-acetamide]	> 7.00
NCCc1ccccc1CCNc1nc(Nc2ccc(Cl)c(Cl)c2)ncc1C(F)(F)F [Example 1(349), 2-(3,4-dichlorophenylamino)-4-(2-(2-(2-amino-1-ethyl)-phenyl)-1-ethyl-amino)-5-trifluoromethyl-pyrimidine]	> 7.00
CC(=O)NCCNc1nc(Nc2cc(Cl)cc(Cl)c2)ncc1C(F)(F)F [Example 2(015), 2-(3,5-Dichloro-phenylamino)-4-(2-acetylamino-ethylamino)-5-trifluoromethyl-pyrimidine]	> 7.00
O=[N+]([O-])c1cnc(Nc2ccc(Br)cc2)nc1N1CCc2[nH]cnc2C1 [Example 1(116), 2-(4-bromophenylamino)-4-(1,4,6,7-tetrahydro-imidazo[4,5-c]pyridin-5-yl)-5-nitro-pyrimidine]	> 7.00
CN(C)CC(=O)NCCCNc1nc(Nc2ccc(C(N)=O)cc2)ncc1C(F)(F)F [Example 7(029), 4-(4-[3-(2-dimethylamino-acetylamino)-propylamino]-5-trifluoromethyl-pyrimidin-2-ylamino)-benzamide]	> 7.00
NCCCNc1nc(Nc2ccc(Cl)c(Cl)c2)ncc1C(F)(F)F [Example 1(035), 2-(3,4-dichloro-phenylamino)-4-(3-amino-propylamino)-5-trifluoromethyl-pyrimidine]	> 7.00
O=C1CCCN1CCCNc1nc(Nc2ccc(Cl)c(Cl)c2)ncc1C(F)(F)F [Example 1(041), 2-(3,4-dichloro-phenylamino)-4-(3-(2-oxo-pyrrolidin-1-yl)-propyl-1-amino)-5-trifluoromethyl-pyrimidine]	> 7.00
CC(=O)NCCNc1nc(Nc2ccc3c(cnn3C)c2)ncc1C(F)(F)F [Example 1(655), N-{2-[2-(1-methyl-1H-indazol-5-ylamino)-5-trifluoromethyl-pyrimidin-4-ylamino]-ethyl}-acetamide]	> 7.00
CC(=O)NCCNc1nc(Nc2cccc([N+](=O)[O-])c2)ncc1C(F)(F)F [Example 2(010), 2-(3-Nitro-phenylamino)-4-(2-acetylamino-ethylamino)-5-trifluoromethyl-pyrimidine]	> 7.00
FC(F)(F)c1cnc(Nc2cc(Cl)cc(Cl)c2)nc1N1CCc2[nH]cnc2C1 [Example 1(014), 2-(3,5-dichlorophenylamino)-4-(1,4,6,7-tetrahydro-imidazo[4,5-c]pyridin-5-yl)-5-trifluoromethyl-pyrimidine]	> 7.00

Now from value to compound:

pIC50	Compound
> 7.00	NCC1CCC(CNc2nc(Nc3ccc(Cl)cc3)ncc2C(F)(F)F)CC1 (stereo not shown) [Example 1(107), 2-(4-chloro-phenylamino)-4-(4-aminomethyl-cyclohexylmethylamino)-5-trifluoromethyl-pyrimidine]
> 7.00	N#Cc1ccc(Nc2ncc([N+](=O)[O-])c(N3CCc4[nH]cnc4C3)n2)cc1 [Example 1(032), 2-(4-cyano-phenylamino)-4-(1,4,6,7-tetrahydro-imidazo[4,5-c]pyridin-5-yl)-5-nitro-pyrimidine]
> 7.00	O=C1CCCN1CCCNc1nc(Nc2cccc(Br)c2)ncc1C(F)(F)F [Example 1(047), 2-(3-bromo-phenylamino)-4-(3-(2-oxo-pyrrolidin-1-yl)-propyl-1-amino)-5-trifluoromethyl-pyrimidine]
> 7.00	CC(=O)NCCNc1nc(Nc2ccc(Br)c(Cl)c2)ncc1C(F)(F)F [Example 2(014), 2-(4-bromo-3-chloro-phenylamino)-4-(2-acetylamino-ethylamino)-5-trifluoromethyl-pyrimidine]
> 7.00	CC(=O)NCCNc1nc(Nc2ccc(NS(C)(=O)=O)cc2)ncc1C(F)(F)F [Example 10(014), N-(2-[2-(4-methanesulphonylamido-phenylamino)-5-trifluoromethyl-pyrimidin-4-ylamino]-ethyl)-acetamide]
> 7.00	O=C1NCCN1CCNc1nc(Nc2ccc(S(=O)(=O)N3CCOCC3)cc2)ncc1C(F)(F)F [Example 2(051), 1-(2-{2-[4-(Morpholin-4-sulphonyl)-phenylamino]-5-trifluoromethyl-pyrimidin-4-ylamino}-ethyl)-imidazolidin-2-one]
> 7.00	CC(=O)NCCNc1nc(Nc2ccc3[nH]nnc3c2)ncc1C(F)(F)F [Example 2(042), N-{2-[2-(1H-Benzotriazol-5-ylamino)-5-trifluoromethyl-pyrimidin-4-ylamino]-ethyl}-acetamide]
> 7.00	NC(=O)CCNc1nc(Nc2ccc(Cl)c(Cl)c2)ncc1C(F)(F)F [Example 1(025), 2-(3,4-dichloro-phenylamino)-4-(2-aminocarbonyl-1-ethylamino)-5-trifluoromethyl-pyrimidine]
> 7.00	CC(=O)NCCNc1nc(Nc2ccc(-c3nn[nH]n3)cc2)ncc1C(F)(F)F [Example 2(046), N-(2-{2-[4-(2H-Tetrazol-5-yl)-phenylamino]-5-trifluoromethyl-pyrimidin-4-ylamino}-ethyl)-acetamide]
> 7.00	CC(=O)NCCNc1nc(Nc2ccc(Cl)c(Cl)c2)ncc1Br [Example 2(002), 2-(3,4-dichlorophenylamino)-4-(2-acetylamino-ethylamino)-5-bromo-pyrimidine-hydrochloride]
> 7.00	NCCCNc1nc(Nc2cccc(Cl)c2)ncc1C(F)(F)F [Example 1(012), 2-(3-chlorophenylamino)-4-(3-aminopropyl-amino)-5-trifluoromethyl-pyrimidine]

system: not given; assay: not given; conditions: not given

Compound	melting point [°C]
CC(=O)NCCNc1nc(Nc2ccc(Cl)c(Cl)c2)ncc1[N+](=O)[O-] [Example 1, 2-(3,4-dichlorophenylamino)-4-(2-acetylamino-ethylamino)-5-nitro-pyrimidine]	200 to 201
CC(=O)NCCNc1nc(Nc2cccc(CN3CCCCC3)c2)ncc1C(F)(F)F [Example 11, N-{2-[2-(3-piperidin-1-ylmethyl-phenylamino)-5-trifluoromethyl-pyrimidin-4-ylamino]-ethyl}-acetamide]	93 to 94
CC(=O)NCCNc1nc(Nc2cccc(C(=O)O)c2)ncc1C(F)(F)F [Example 9, 3-[4-(2-acetylamino-ethylamino)-5-trifluoromethyl-pyrimidin-2-ylamino]-benzoic acid]	282
CNC(=O)c1ccc(Nc2ncc(C(F)(F)F)c(NCCNC(C)=O)n2)cc1 [Example 8, 4-[4-(2-acetylamino-ethylamino)-5-trifluoromethyl-pyrimidin-2-ylamino]-N-methyl-benzamide]	183

More lines, now with the values ahead:

melting point [°C]	Compound
171 to 173	CC(=O)NCCNc1nc(Nc2ccc(C(=O)O)cc2)ncc1[N+](=O)[O-].Cl
275 to 278	CC(=O)NCCNc1nc(Nc2ccc(C(=O)O)cc2)ncc1C(C)C [Example 6, 4-[4-(2-acetylamino-ethylamino)-5-isopropyl-pyrimidin-2-ylamino]-benzoic acid]
160 to 162	O=C(NCCNc1nc(Nc2ccc(Cl)c(Cl)c2)ncc1C(F)(F)F)c1ccccc1 [Example 7, N-(2-[2-(3,4-dichloro-phenylamino)-5-trifluoromethyl-pyrimidin-4-ylamino]-ethyl)-benzamide]
